Source: ChEMBL document CHEMBL1201862, “PubChem BioAssay data set” (2004)
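1) Cells in 96-well plates. 2) Compound, 48 h, 5 concentrations. 3) Linear interpolation between surrounding doses. 4) Unreached endpoint = highest concentration. The concentration for 50% growth inhibition is given as GI50.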 Calls of active or inactive are those of the source. No stated cut-off is given here; in the data, active = GI50 up to about 1.1 µM and inactive = higher.

What was measured:
Assay in all cases: growth of human tumour cells (NCI), 48 h
DMS-273 = tested on: DMS-273
LXFL 529 = tested on: LXFL 529
M19-MEL = tested on: M19-MEL
SNB-78 = tested on: SNB-78
XF498 = tested on: XF498
MDA-N = tested on: MDA-N
T47D = tested on: T47D
HOP-18 = tested on: HOP-18

SMILES | GI50 (DMS-273) | GI50 (LXFL 529) | GI50 (M19-MEL) | GI50 (SNB-78) | GI50 (XF498) | GI50 (MDA-N) | GI50 (T47D) | GI50 (HOP-18)
Cc1ccc(-n2c(C)nc3c2C(=O)c2ccccc2C3=O)cc1 | 9.86 µM (inactive) | 9.84 µM (inactive) | 12 µM (inactive) | > 100 µM (inactive) | 50.5 µM (inactive) | – | – | –
CCC(C)c1cnc(CC(C)C)c(=O)[nH]1 (configuration not stated) | – | – | – | – | – | > 100 µM (inactive) | > 100 µM (inactive) | –
COC(=O)c1c2c(cc3c1CC1(Cc4cc5c(c(C(C)=O)c4C1)CCC5)C3)CCC2 (configuration not stated) | 29.9 µM (inactive) | 64.3 µM (inactive) | > 100 µM (inactive) | > 100 µM (inactive) | 31.3 µM (inactive) | – | – | > 100 µM (inactive)
OC1C2CCC1C1C3C=CC(C3)C21 (configuration not stated) | 94.4 µM (inactive) | 96.4 µM (inactive) | > 100 µM (inactive) | > 100 µM (inactive) | > 100 µM (inactive) | – | – | > 100 µM (inactive)
COC(=O)C(/C(=N/N)C(=O)Nc1cc(Cl)c(Cl)cc1Cl)c1nc2ccc(Cl)cc2nc1O (configuration not stated) | – | – | – | – | – | > 100 µM (inactive) | > 100 µM (inactive) | –
C/C(=N/S(=O)(=O)c1ccc(Cl)c(Cl)c1)OCC(C)(C)C | – | – | – | – | – | > 100 µM (inactive) | > 100 µM (inactive) | –
Cc1c(C(=O)O)n(C)c(=O)n(C)c1=O | > 100 µM (inactive) | > 100 µM (inactive) | > 100 µM (inactive) | – | > 100 µM (inactive) | – | – | > 100 µM (inactive)
CC1(C)CC(=O)C2=C(C1)NC(SCC(=O)O)=C(C#N)C2c1ccc(Br)cc1 (configuration not stated) | – | – | – | – | – | > 100 µM (inactive) | – | –
O=C(N/N=C/c1ccc(Br)cc1)N/N=C/c1ccc(Br)cc1 | – | – | – | – | – | 10.2 µM (inactive) | 4.38 µM (inactive) | –
COc1cc2cccc(NC(=O)c3cc(OC)c(OC)c(OC)c3Br)c2cc1OC | – | 2.52 µM (inactive) | 10.2 µM (inactive) | 17.1 µM (inactive) | 2.4 µM (inactive) | – | – | 20.6 µM (inactive)
COc1ccc(NC(=O)CSc2nnc(-c3ccc(NC(C)=O)cc3)o2)cc1 | 19.3 µM (inactive) | 13.6 µM (inactive) | 21 µM (inactive) | 13.8 µM (inactive) | – | – | – | 19.9 µM (inactive)
CC(C)SC(NC(=O)C1C(C)(C)CCC1(C)C)C(=O)O (configuration not stated) | – | – | – | – | – | > 100 µM (inactive) | – | –
COc1ccc(-c2ccccc2)c2[nH]c3c(c12)CCNC3=O | > 100 µM (inactive) | > 100 µM (inactive) | > 100 µM (inactive) | > 100 µM (inactive) | – | – | – | –
COC(=O)c1sc(=S)sc1SCc1ccccc1CSc1sc(=S)sc1C(=O)OC | – | – | – | – | – | > 100 µM (inactive) | – | –
Clc1ccc2nc3c(c(-c4ccccc4)nn3-c3ccccc3)c(-c3ccccc3)c2c1 | – | – | – | – | – | > 100 µM (inactive) | > 100 µM (inactive) | –
CCC(=O)OCN1C(=O)C=CC1=O | – | – | – | – | – | 16.9 µM (inactive) | – | –

SMILES | GI50 (DMS-273) | GI50 (LXFL 529) | GI50 (M19-MEL) | GI50 (SNB-78) | GI50 (XF498) | GI50 (MDA-N) | GI50 (T47D) | GI50 (HOP-18)
O=C1OCC(c2ccc(Cl)cc2)=C1Cl | – | – | – | – | – | – | 34.7 µM (inactive) | –
Cc1ncc([N+](=O)[O-])n1CCN(C)CCCCn1ccnc1[N+](=O)[O-] | – | – | – | – | – | > 100 µM (inactive) | > 100 µM (inactive) | –
O=C1CCC2c3ccccc3NCN12 (configuration not stated) | – | – | – | – | – | > 100 µM (inactive) | > 100 µM (inactive) | –
CCn1c(SCC(=O)NNC(=S)Nc2ccc(F)cc2)nc2ccccc2c1=O | – | – | – | – | – | > 100 µM (inactive) | 57.7 µM (inactive) | –
CN(C)c1ccc(/C=C(\NC(=O)c2ccccc2)C(=O)Nc2cccc(C(=O)NCCCO)c2)cc1 | – | – | – | – | – | > 100 µM (inactive) | > 100 µM (inactive) | –
CCN(CC(COc1ccc2c(c1)[n+]([O-])nc(N)[n+]2[O-])OC(C)=O)C(C)=O (configuration not stated) | – | – | – | – | – | 85.7 µM (inactive) | 33.9 µM (inactive) | –
CN1C2(c3ccccc3)C(C(=O)c3ccccc3)=C(C(=O)c3ccccc3)C1(c1ccccc1)c1c(-c3ccccc3)sc(-c3ccccc3)c12 | > 100 µM (inactive) | > 100 µM (inactive) | > 100 µM (inactive) | > 100 µM (inactive) | – | – | – | –
C/C=C/C(C#N)(/C=C/c1ccccc1)OP1(=O)OC(c2ccccc2)C(C)N1C (configuration not stated) | – | – | – | – | – | 20.3 µM (inactive) | 20.7 µM (inactive) | –
COc1ccccc1CCc1cc(OC)c(OC)c(OC)c1 | 39.6 µM (inactive) | 28.4 µM (inactive) | 48.3 µM (inactive) | 43 µM (inactive) | 35.9 µM (inactive) | – | – | > 100 µM (inactive)
CC[C@]1(Cc2ccc(OC)c(OC)c2)C=[N+]([O-])O[C@H](OC2CCCC2(c2ccccc2)c2ccccc2)[C@@H]1OC(C)=O (some centres not stated) | – | – | – | – | – | – | 2.96 µM (inactive) | –
COc1ccc(-c2c(C#N)c(O)n(NS(=O)(=O)c3ccc(C)cc3)c(=O)c2C#N)cc1 | – | – | – | – | – | 77.8 µM (inactive) | – | –
O=C(c1ccco1)N1CCN(C(=O)c2ccco2)C1=S | – | – | – | – | – | 4.7 µM (inactive) | 4.78 µM (inactive) | –
COc1ccc(Cl)cc1NC(=O)c1cccc([N+](=O)[O-])c1O | – | 8.43 µM (inactive) | 9.79 µM (inactive) | 19.4 µM (inactive) | – | 19.8 µM (inactive) | 9.25 µM (inactive) | 2.51 µM (inactive)
C[C@]12CC[C@@H]3c4ccc(OC(=O)c5ccccc5)cc4CC[C@H]3[C@@H]1CCC2OC(=O)c1cccc2c(=O)c3ccccc3[nH]c12 (some centres not stated) | – | – | – | – | – | 11.1 µM (inactive) | 26.4 µM (inactive) | –
N[C@H](C(=O)O)[C@@H]1CC(Br)=NO1 | – | – | – | – | – | 8.41 µM (inactive) | > 34.1 µM (inactive) | –
